The record followed here is ChEMBL document CHEMBL3044541, “Control of crown rot-causing fungal pathogens of banana by inorganic salts and a surfactant” (Crop Prot, 2007).

For data set [1], the system named is Colletotrichum musae. Nature of the data set: Antifungal activity against Colletotrichum musae assessed as inhibition of conidium germination at 5 g/l incubated for 15 min followed by compound washout measured after 2 days by microscopic analysis in absence of surfactant APSA 80. Format: functional, organism-based.
For data set [2], the system named is Lasiodiplodia theobromae. Nature of the data set: Antifungal activity against Lasiodiplodia theobromae assessed as inhibition of conidium germination at 5 g/l incubated for 15 min followed by compound washout measured after 2 days by microscopic analysis in absence of surfactant APSA 80. The format is functional, organism-based.
In data set [3] the test system is Fusarium verticillioides. Nature of the data set: Growth inhibition of Fusarium verticillioides assessed as concentration required for inhibition of mycelial growth incubated for 15 min followed by compound washout measured after 7 days in absence of surfactant APSA 80. The format is functional.
Data set [4] relates to Colletotrichum musae. Nature of the data set: Growth inhibition of Colletotrichum musae assessed as concentration required for inhibition of mycelial growth incubated for 15 min followed by compound washout measured after 7 days in absence of surfactant APSA 80. Format: functional.
The subject of data set [5] is Lasiodiplodia theobromae. Nature of the data set: Growth inhibition of Lasiodiplodia theobromae assessed as concentration required for inhibition of mycelial growth incubated for 15 min followed by compound washout measured after 7 days in absence of surfactant APSA 80. The format is functional.
The subject of data set [6] is Lasiodiplodia theobromae. As to the kind of experiment: Growth inhibition of Lasiodiplodia theobromae assessed as concentration required for inhibition of mycelial growth incubated for 15 min followed by compound washout measured after 7 days in presence of surfactant APSA 80. Format: functional.
Data set [7] concerns Musa acuminata AAA Group. Nature of the data set: Phytotoxicity against Musa acuminata AAA Group (Cavendish banana) assessed as skin burn incubated for 15 min followed by compound washout measured after 1 to 3 weeks in presence of surfactant APSA 80 relative to control. The format is organism-based. Conditions: in vivo.
The test system of data set [8] is Musa acuminata AAA Group. As to the kind of experiment: Phytotoxicity against Musa acuminata AAA Group (Cavendish banana) assessed as discoloration incubated for 15 min followed by compound washout measured after 1 to 3 weeks in presence of surfactant APSA 80 relative to control. Conditions: in vivo. Format: organism-based.
Data set [9] deals with Colletotrichum musae. As to the kind of experiment: Antifungal activity against Colletotrichum musae assessed as inhibition of conidium germination at 5 g/l incubated for 15 min followed by compound washout measured after 7 days by microscopic analysis in presence of surfactant APSA 80. Format: functional, organism-based.
The subject of data set [10] is Thielaviopsis paradoxa. As to the kind of experiment: Antifungal activity against Ceratocystis paradoxa assessed as inhibition of conidium germination at 5 g/l incubated for 15 min followed by compound washout measured after 7 days by microscopic analysis in presence of surfactant APSA 80. Format: functional, organism-based.
The test system of data set [11] is Lasiodiplodia theobromae. Nature of the data set: Antifungal activity against Lasiodiplodia theobromae assessed as inhibition of conidium germination at 5 g/l incubated for 15 min followed by compound washout measured after 7 days by microscopic analysis in presence of surfactant APSA 80. Format: functional, organism-based.
Data set [12] concerns Fusarium verticillioides. Nature of the data set: Antifungal activity against Fusarium verticillioides assessed as inhibition of conidium germination at 5 g/l incubated for 15 min followed by compound washout measured after 2 days by microscopic analysis in absence of surfactant APSA 80. Format: functional, organism-based.
Data set [13] concerns Fusarium verticillioides. Nature of the data set: Antifungal activity against Fusarium verticillioides assessed as inhibition of conidium germination at 5 g/l incubated for 15 min followed by compound washout measured after 7 days by microscopic analysis in presence of surfactant APSA 80. Format: functional, organism-based.
Data set [14] has as its system Thielaviopsis paradoxa. As to the kind of experiment: Antifungal activity against Ceratocystis paradoxa assessed as inhibition of conidium germination at 6 g/l incubated for 15 min followed by compound washout measured after 2 days by microscopic analysis in absence of surfactant APSA 80. The format is functional, organism-based.
Data set [15] concerns Colletotrichum musae. Nature of the data set: Antifungal activity against Colletotrichum musae assessed as inhibition of conidium germination at 6 g/l incubated for 15 min followed by compound washout measured after 2 days by microscopic analysis in absence of surfactant APSA 80. The format is functional, organism-based.
For data set [16], the system named is Lasiodiplodia theobromae. Nature of the data set: Antifungal activity against Lasiodiplodia theobromae assessed as inhibition of conidium germination at 6 g/l incubated for 15 min followed by compound washout measured after 2 days by microscopic analysis in absence of surfactant APSA 80. The format is functional, organism-based.
The test system of data set [17] is Fusarium verticillioides. As to the kind of experiment: Growth inhibition of Fusarium verticillioides assessed as inhibition of mycelial growth up to 160 g/l incubated for 15 min followed by compound washout measured after 7 days in presence of surfactant APSA 80. The format is functional, organism-based.
The test system of data set [18] is Colletotrichum musae. Nature of the data set: Growth inhibition of Colletotrichum musae assessed as inhibition of mycelial growth up to 160 g/l incubated for 15 min followed by compound washout measured after 7 days in presence of surfactant APSA 80. The format is functional, organism-based.
Data set [19] concerns Lasiodiplodia theobromae. As to the kind of experiment: Growth inhibition of Lasiodiplodia theobromae assessed as inhibition of mycelial growth up to 160 g/l incubated for 15 min followed by compound washout measured after 7 days in presence of surfactant APSA 80. The format is functional, organism-based.
Data set [20] deals with Colletotrichum musae. Nature of the data set: Antifungal activity against Colletotrichum musae assessed as inhibition of conidium germination at 6 g/l incubated for 15 min followed by compound washout measured after 7 days by microscopic analysis in presence of surfactant APSA 80. The format is functional, organism-based.
The test system of data set [21] is Thielaviopsis paradoxa. As to the kind of experiment: Antifungal activity against Ceratocystis paradoxa assessed as inhibition of conidium germination at 6 g/l incubated for 15 min followed by compound washout measured after 7 days by microscopic analysis in presence of surfactant APSA 80. Format: functional, organism-based.
Data set [22] concerns Lasiodiplodia theobromae. As to the kind of experiment: Antifungal activity against Lasiodiplodia theobromae assessed as inhibition of conidium germination at 6 g/l incubated for 15 min followed by compound washout measured after 7 days by microscopic analysis in presence of surfactant APSA 80. Format: functional, organism-based.
The test system of data set [23] is Fusarium verticillioides. As to the kind of experiment: Antifungal activity against Fusarium verticillioides assessed as inhibition of conidium germination at 6 g/l incubated for 15 min followed by compound washout measured after 2 days by microscopic analysis in absence of surfactant APSA 80. The format is functional, organism-based.
In data set [24] the test system is Fusarium verticillioides. Nature of the data set: Antifungal activity against Fusarium verticillioides assessed as inhibition of conidium germination at 6 g/l incubated for 15 min followed by compound washout measured after 7 days by microscopic analysis in presence of surfactant APSA 80. The format is functional, organism-based.
In data set [25] the test system is Colletotrichum musae. As to the kind of experiment: Growth inhibition of Colletotrichum musae assessed as concentration required for inhibition of mycelial growth incubated for 15 min followed by compound washout measured after 7 days in presence of surfactant APSA 80. The format is functional.

SMILES strings stand for the structures. Calls of active or inactive are those of the source. The rule behind the calls is not given here.

Turning to `[Na+].[O-]Cl` [SODIUM HYPOCHLORITE], the inhibition entry in data set [1], in data set [2], in data set [9], in data set [10], in [11] and in [12] was “Active” in each case. Also, in data set [13], the inhibition entry was “Active”. Besides, the Activity in data set [3] is reported as 70 g/L; in data set [4], 50 g/L; in [5], 20 g/L; in data set [6], 20 g/L; in data set [7], “Toxic”; in data set [8], “Toxic”.

Consider `[Cl-].[Na+]` [SODIUM CHLORIDE], for which the inhibition result in data set [14], in data set [15], in data set [16], in data set [20], in data set [21] and in data set [22] was “Active” each time. Besides, the inhibition entry in data set [23] and in data set [24] was “Active” throughout. The outcome in [17], in [18] and in data set [19] was inactive. The Activity result in data set [7] and in data set [8] was “Toxic” each time.

Take `[Ca+2].[Cl-].[Cl-]` [CALCIUM CHLORIDE]: the inhibition result in data set [1], in data set [2], in data set [9], in [10], in data set [11] and in data set [12] was “Active” throughout. In [13], the inhibition entry is “Active”. Further, the result in [17] was inactive. Besides, the Activity in data set [25] is 140 g/L; in data set [6], 100 g/L.
